We go through four compounds from article PMC8187357 (Communications Biology, 2021).

For orientation: EC50 means the concentration needed to bring the measured effect to its halfway point. As usually defined, the AUC is concentration integrated over time. Broadly, the clearance is a measure of how efficiently the substance is removed, as volume per time. The bioavailability is dose-corrected exposure relative to a reference, in per cent. By Cmax is commonly meant the highest concentration seen after dosing.

Data set [1] relates to CT26 colon carcinoma. In words: CT26 model, survival in combination with cyclophosphamide. More on the design: key to Survival data: 0: Censored; Death or tumor volume more than 10% of body weight. The class given is in vivo, mouse. Particulars: Vehicle+CTX, individual animals. The procedure: (§1) Studies in syngeneic models including B16 melanoma metastasis model and CT26 colon carcinoma subcutaneous model were performed as described. For the Docetaxel combination experiment in CT26 model, indicated dosage of docetaxel (Source: Docetere® injection by Dr Reddy’s Laboratories) was dosed intraperitoneally to animals. For the CA-170 combination groups, CA-170 (10 mg/kg/day, oral) was dosed ~10 min after docetaxel. Animal grouping, treatment efficacy assessment and %TGI calculations were performed as mentioned above. For the CT26 experiment with cyclophosphamide, 100 mg/kg of cyclophosphamide was dosed once on day 5 intraperitoneally after cell implantation (first day of dosing for all other groups). Anti-PD1 antibody (Clone J43 from BioXcel) was dosed intraperitoneally at 100 µg/animal once every week.

The next data set concerns the target T1, PD-L1 (Mus musculus, UniProt Q9EP73).
T1 construct: purchased R&D Systems 1019-B7-100
Nature of the data set: Rescue of PD-L1 mediated inhibition of proliferation, mouse splenocytes. The data set is classed as cell-based. As to conditions: splenocyte-based assay. On the procedure:
The ability of peptides, peptidomimetics, and small molecules were analyzed for their ability to rescue T-cell proliferation or IFN-γ release from the inhibitory activity of PD-L1 or PD-L2 in a splenocyte/PBMC-based functional assay as per the protocols reported in publication. […] For all in vitro assays, test agent stock was prepared in water and diluted further in the assay media to achieve test concentrations. Each experimental condition was carried out in triplicates. Percent rescue for a given test compound concentration was calculated by normalizing individual percent test agent proliferation or IFN-γ release values to percent anti-CD3 and anti-CD28 antibodies stimulated proliferation or IFN-γ release. EC50 values were derived by plotting transformed data into non-linear fit in sigmoidal dose–response curve using GraphPad Prism software (Version 7).

A further data set can be described thus: Pharmacokinetics in mice. The class given is in vivo, mouse. Particulars: mouse, in vivo. The procedure: Animals in Group 1 were administered with 5% w/v dextrose in water and Group 2 were administered with corresponding formulation listed in the Supplementary Table 6 through oral routes. Blood samples (approximately 40 μl) were collected under light isoflurane anesthesia from submandibular at predose, 0.08 (IV), 0.25, 0.5, 1, 2, 4, 8, and 24 h using sparse sampling technique. Plasma samples were separated by centrifugation of whole blood and stored below −70 °C until bioanalysis. All samples were processed for analysis by protein precipitation and analyzed with fit-for-purpose LC–MS/MS method.

Data set [2] deals with CT26 colon carcinoma. Nature of the data set: CT26 model, combination with docetaxel. The data set is classed as in vivo, mouse. As to conditions: for TGI: CT26 in Balb/c mice, 12 days; for Individual tumor volumes: individual animals. On the procedure: as §1

Values joined by “and” are separate entries in the source; they are usually repeats but may differ in a detail not shown here. Equal values may be shown once. Residues, ends and D or L forms follow the SMILES beside them.

T1 sequence (Q9EP73 with tags, fused parts or gaps limits assumed): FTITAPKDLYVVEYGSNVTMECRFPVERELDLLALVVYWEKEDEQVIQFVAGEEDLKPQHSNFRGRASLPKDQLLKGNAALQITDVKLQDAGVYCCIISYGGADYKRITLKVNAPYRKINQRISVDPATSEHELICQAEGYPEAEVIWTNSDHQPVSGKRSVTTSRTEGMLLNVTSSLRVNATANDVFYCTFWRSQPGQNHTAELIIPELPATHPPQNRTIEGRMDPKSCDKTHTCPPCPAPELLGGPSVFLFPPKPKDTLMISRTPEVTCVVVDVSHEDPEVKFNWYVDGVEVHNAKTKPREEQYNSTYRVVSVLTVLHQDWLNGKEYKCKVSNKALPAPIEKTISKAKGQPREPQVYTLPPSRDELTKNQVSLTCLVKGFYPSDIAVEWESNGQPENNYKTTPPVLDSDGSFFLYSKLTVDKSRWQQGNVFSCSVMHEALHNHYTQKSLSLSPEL

As for `O=P1(N(CCCl)CCCl)NCCCO1` (stereo not shown) [CTX], the Survival data in the data set with CT26 colon carcinoma [1] (day 1 of treatment) was 0; with CT26 colon carcinoma [1] (day 3 of treatment), 0; in the data set with CT26 colon carcinoma [1] (day 6 of treatment) it was 0; in the data set on CT26 colon carcinoma [1] (day 8 of treatment) it was 0; with CT26 colon carcinoma [1] (day 10 of treatment), 0; in the data set on CT26 colon carcinoma [1] (day 12 of treatment) it was 1 and 0. Besides, the Survival data in the data set with CT26 colon carcinoma [1] (day 14 of treatment) is 1 and 0; in the data set with CT26 colon carcinoma [1] (day 15 of treatment), 0.

Consider `C[C@@H](O)[C@H](NC(=O)[C@H](CC(N)=O)NC(=O)[C@@H](N)CO)C(=O)O` [PM-116] (H-Ser-Asn-Thr-OH; N-terminus and C-terminus assumed), for which the EC50 at PD-L1 came to 6 nM.

For `C[C@@H](O)[C@@H]1NC(=O)[C@H](CC(N)=O)NC(=O)[C@H](CO)NC(=O)[C@H](Cc2ccccc2)NC(=O)[C@H](CO)NC(=O)[C@H](CCC(=O)O)NC(=O)[C@H](CO)NC1=O` [PM-823] (HELM PEPTIDE1{E.S.F.S.N.T.S}$PEPTIDE1,PEPTIDE1,1:R1-7:R2$$$V2.0), the response on PD-L1 was half-maximal at 55 nM (EC50). In the data set “Pharmacokinetics in mice” (iv, 1 mg/kg), this compound gave an AUC of 2180 ng·h/mL and a clearance of 22.9 mL/min/kg. In “Pharmacokinetics in mice” (po), the bioavailability was determined as 6.8% and the “oral bioavailability (in words)” value is “not orally bioavailable”. In the data set “Pharmacokinetics in mice” (po, 30 mg/kg), this compound had an AUC of 495 ng·h/mL and a Cmax of 554 ng/mL.

Turning to `CC(=O)O[C@@]12CO[C@@H]1C[C@H](O)[C@@]1(C)C(=O)[C@H](O)C3=C(C)[C@@H](OC(=O)[C@H](O)[C@@H](NC(=O)OC(C)(C)C)c4ccccc4)C[C@@](O)([C@@H](OC(=O)c4ccccc4)[C@H]21)C3(C)C` [docetaxel], the TGI in the data set on CT26 colon carcinoma [2] (single agent docetaxel 1 mg/kg) was determined as 44%; in the data set with CT26 colon carcinoma [2] (single agent docetaxel 10 mg/kg), 43%. For the same compound, the Individual tumor volumes in the data set on CT26 colon carcinoma [2] (Docetaxel 1mg/kg, day 1 of treatment) was 22.15 mm3 and 31.55 mm3 and 34.9 mm3 and 45.07 mm3 and 50.49 mm3 and 58.82 mm3 and 62.62 mm3 and 76.97 mm3 and 88.69 mm3; in the data set on CT26 colon carcinoma [2] (Docetaxel 1mg/kg, day 4 of treatment), 46.4 mm3 and 28.72 mm3 and 78.5 mm3 and 62.65 mm3 and 97.03 mm3 and 124.03 mm3 and 118.17 mm3 and 67.74 mm3 and 149.61 mm3; in the data set with CT26 colon carcinoma [2] (Docetaxel 1mg/kg, day 6 of treatment), 132.42 mm3 and 19.09 mm3 and 90.17 mm3 and 95.74 mm3 and 164.49 mm3 and 224.32 mm3 and 158.95 mm3 and 86.49 mm3 and 198.71 mm3; in the data set with CT26 colon carcinoma [2] (Docetaxel 1mg/kg, day 8 of treatment), 186.57 mm3 and 10.93 mm3 and 133.19 mm3 and 151.25 mm3 and 260.04 mm3 and 385.2 mm3 and 276.47 mm3 and 199.1 mm3 and 392.38 mm3; in the data set with CT26 colon carcinoma [2] (Docetaxel 1mg/kg, day 11 of treatment), 263.17 mm3 and 22.61 mm3 and 143.19 mm3 and 316.97 mm3 and 451.22 mm3 and 764.37 mm3 and 562.88 mm3 and 301.78 mm3 and 690.4 mm3; in the data set on CT26 colon carcinoma [2] (Docetaxel 10mg/kg, day 1 of treatment), 22.87 mm3 and 29.49 mm3 and 35.8 mm3 and 43.1 mm3 and 51.4 mm3 and 57.21 mm3 and 63.02 mm3 and 74.99 mm3 and 92.42 mm3. In addition, the Individual tumor volumes is 54.41 mm3 and 32.56 mm3 and 76.21 mm3 and 71.86 mm3 and 73.1 mm3 and 87.77 mm3 and 117.98 mm3 and 93.45 mm3 and 48.5 mm3 in the data set on CT26 colon carcinoma [2] (Docetaxel 10mg/kg, day 4 of treatment); 109.48 mm3 and 42.16 mm3 and 129.37 mm3 and 103.08 mm3 and 111.56 mm3 and 155.23 mm3 and 165.2 mm3 and 163.17 mm3 and 79.31 mm3 in the data set on CT26 colon carcinoma [2] (Docetaxel 10mg/kg, day 6 of treatment); 163.72 mm3 and 98.83 mm3 and 244.12 mm3 and 203.26 mm3 and 199.06 mm3 and 316.02 mm3 and 316.69 mm3 and 217.54 mm3 and 105.3 mm3 in the data set with CT26 colon carcinoma [2] (Docetaxel 10mg/kg, day 8 of treatment); 322.31 mm3 and 251.42 mm3 and 447.21 mm3 and 378.85 mm3 and 332.62 mm3 and 662.99 mm3 and 641.53 mm3 and 377.51 mm3 and 200.96 mm3 in the data set on CT26 colon carcinoma [2] (Docetaxel 10mg/kg, day 11 of treatment).
